In patent US8722894B2, “1,3-disubstituted-4-phenyl-1H-pyridin-2-ones” (Janssen Pharmaceuticals, Inc., priority 2007, dated 2014):

Tests used:
[1] = target: T1, human mGluR2 receptor (Homo sapiens, UniProt Q14416); experiment: [35S]GTPγS binding assay (GTPγS-PAM), membranes from cells transfected with the human mGluR2 receptor; format: biochemical; settings: in presence of mGluR2 agonist glutamate at a predetermined EC25 concentration; CHO-cell membranes; averages of duplicate values of 11-concentration response curves; pEC50 = -logEC50; read-out: GTPgS - hR2 PAM pEC50 (converted)
T1 construct: expressed in transfected cells; host or cells: CHO cells
Description: The [^35S]GTPγS binding assay is a functional membrane-based assay used to study G-protein coupled receptor (GPCR) function whereby incorporation of a non-hydrolysable form of GTP, [^35S]GTPγS (guanosine 5′-triphosphate, labelled with […] ^35S), is measured. The G-protein α subunit catalyzes the exchange of guanosine 5′-diphosphate (GDP) by guanosine triphosphate (GTP) and on activation of the GPCR by an agonist, [^35S]GTPγS, becomes incorporated and cannot be cleaved to continue the exchange cycle (Harper (1998) Current Protocols in Pharmacology 2.6.1-10, John Wiley & Sons, Inc.). […] Here we describe the use of the [^35S]GTPγS binding assay using membranes from cells transfected with the human mGluR2 receptor and adapted from Schaffhauser et al ((2003) Molecular Pharmacology 4:798-810) for the detection of the positive allosteric modulation (PAM) properties of the compounds of this invention.
CHO-cells were cultured to pre-confluence and stimulated with 5 mM butyrate for 24 hours, prior to washing in PBS, and then collection by scraping in homogenisation buffer (50 mM Tris-HCl buffer, pH 7.4, 4° C.). Cell lysates were homogenized briefly (15 s) using an ultra-turrax homogenizer. The homogenate was centrifuged at 23 500×g for 10 minutes and the supernatant discarded. The pellet was resuspended in 5 mM Tris-HCl, pH 7.4 and centrifuged again (30 000×g, 20 min, 4° C.). The final pellet was resuspended in 50 mM HEPES, pH 7.4 and stored at −80° C. in appropriate aliquots before use. Protein concentration was determined by the Bradford method (Bio-Rad, USA) with bovine serum albumin as standard.
Measurement of mGluR2 positive allosteric modulatory activity of test compounds in membranes containing human mGluR2 was performed using frozen membranes that were thawed and briefly homogenised prior to pre-incubation in 96-well microplates (15 μg/assay well, 30 minutes, 30° C.) in assay buffer (50 mM HEPES pH 7.4, 100 mM NaCl, 3 mM MgCl2, 50 μM GDP, 10 μg/ml saponin,) with increasing concentrations of positive allosteric modulator (from 0.3 nM to 50 μM) and either a minimal pre-determined concentration of glutamate (PAM assay), or no added glutamate. For the PAM assay, membranes were pre-incubated with glutamate at EC25 concentration, i.e. a concentration that gives 25% of the maximal response glutamate, and is in accordance to published data (Pin et al. (1999) Eur. J. Pharmacol. 375:277-294). […] Filters were then air-dried, and 40 μl of liquid scintillation cocktail (Microscint-O) was added to each well, and membrane-bound [^35S]GTPγS was measured in a 96-well scintillation plate reader (Top-Count, Perkin-Elmer, USA). Non-specific [^35S]GTPγS binding is determined in the presence of cold 10 μM GTP. […]

T1 sequence (Q14416 19-872): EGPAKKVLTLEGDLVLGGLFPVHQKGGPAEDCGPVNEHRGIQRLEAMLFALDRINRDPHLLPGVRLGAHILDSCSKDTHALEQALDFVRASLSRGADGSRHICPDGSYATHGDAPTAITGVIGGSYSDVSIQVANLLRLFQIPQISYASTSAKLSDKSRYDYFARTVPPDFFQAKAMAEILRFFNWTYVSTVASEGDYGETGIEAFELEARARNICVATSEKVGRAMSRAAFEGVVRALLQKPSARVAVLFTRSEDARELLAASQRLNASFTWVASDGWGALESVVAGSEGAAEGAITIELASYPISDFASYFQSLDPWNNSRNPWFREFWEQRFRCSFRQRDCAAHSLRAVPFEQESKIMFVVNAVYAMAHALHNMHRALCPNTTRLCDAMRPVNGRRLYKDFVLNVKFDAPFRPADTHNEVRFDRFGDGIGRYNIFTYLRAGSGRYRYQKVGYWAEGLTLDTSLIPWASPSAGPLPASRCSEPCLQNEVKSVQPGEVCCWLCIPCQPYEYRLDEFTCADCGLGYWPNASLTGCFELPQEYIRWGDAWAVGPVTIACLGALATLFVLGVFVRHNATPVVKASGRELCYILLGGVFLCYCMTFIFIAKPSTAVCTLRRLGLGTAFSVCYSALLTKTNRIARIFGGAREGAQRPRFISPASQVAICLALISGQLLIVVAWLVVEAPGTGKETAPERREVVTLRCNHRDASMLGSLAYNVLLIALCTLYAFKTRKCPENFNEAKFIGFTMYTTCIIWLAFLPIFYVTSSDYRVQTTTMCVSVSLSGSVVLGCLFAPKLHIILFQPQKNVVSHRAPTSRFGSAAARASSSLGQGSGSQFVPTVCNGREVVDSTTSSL

O=c1c(Cl)c(-c2ccc(OC3CCOCC3)c(Cl)c2)ccn1CCC1CC1 [Compound 4]
EC50 [1]: 0.275 µM
melting point: 154 °C

O=c1c(Cl)c(-c2ccc(NC3CCOCC3)c(C(F)(F)F)c2)ccn1CC1CC1 [Compound 5]
EC50 [1]: 0.813 µM
melting point: 173 °C

O=c1c(Cl)c(-c2ccc(NC3CCOCC3)c(Cl)c2)ccn1CC1CC1 [Compound 6]
EC50 [1]: 0.575 µM
melting point: 231 °C

CCCCn1ccc(-c2ccc(NC3CCC(C)(O)CC3)c(Cl)c2)c(Cl)c1=O (centres unmarked) [Compound 7]
EC50 [1]: 0.0398 µM
melting point: 227.4 °C
